# Patent publication US5317022A, “Pharmaceutical composition and use” (priority 1991, dated 1994)
# “Also recorded” adds a separate entry of the source. Where two headings read alike, the source gives them in different places.
# Legend:
# [1] = target: (^3 H)naloxone binding sites; experiment: competition binding assay with (3H)naloxone on rat brain membranes; conditions: membranes incubated with (3H)naloxone 1 nM and increasing ligand concentrations; read-out: Affinity constants (Ki nM) in competition assays
# Description: (§1) Membrane preparation: A crude membrane fraction from rat brain (PVG/C strain) was prepared [Mol. Pharm.11 (1975) 340-351 and the protein content was defined [Anal. Biochem. 72(1976) 248-254).
# (§2) The membrane suspension (200-400 μg protein) was incubated with the specific radioligand for 1 hour on ice. Incubations were terminated by rapid filtration under vacuo followed by washing with ice cold tris HCl buffer (50 mM, pH 7,4). Radioactivity was measured in a toluene based scintillation mixture on a LKB Minibeta Liquid Scintillation Spectrophotometer. Nonspecific binding was defined in the presence of 10 μM unlabeled naloxone. All assays were performed in triplicate and repeated several times. Ki values were determined from equilibrium experiments and calculated with the Tshang-Prusov equation. The data were evaluated using the Ligand program [Anal. Biol. Chem. 107 (1980) 220-239](Data shown on Table III/1).
# [2] = system: rabbits; experiment: effects on respiration on conscious rabbits (III.5, Marey-drum)
# Description: Investigation was carried out on conscious rabbits of both sexes and of 3-4 kg weight by way of a Marey-drum. Frequency and amplitude of respiration were quantitatively evaluated.
# [3] = system: rabbits; experiment: effect on respiration on conscious rabbits (III.6, type A/B/C tests); assay type: in vivo; parameters: resp. change ampl.: unit not given here
# Description: The method as described above in Example III.5 was used on conscious rabbits of 2,5-3 kg weight. Registration was continued for 3-4 hours. The samples were injected under the skin of the neck and the respiration parameters were registered at intervals of 10 minutes.
# [4] = system: rats; experiment: sedative (narcosis potentiating) effect, Inactine base narcotic, rats; assay type: in vivo
# Description: Inactine (35 mg/kg) was used as a base narcotic.
# *ED500 % = dose increasing narcosis to five times the control.
# [5] = target: (^3 H)naloxone binding sites; experiment: wash-resistant binding of (3H)naloxone, rat brain membranes; conditions: preincubated with (3H)naloxone 1 nM and test compound; remaining specific binding after several washings; average of 2-4 data; compound.HCl; read-out: Ki (nM), affinity constants
# Description: as §1, §2
# After preincubation a thorough washing was performed. [Life Sci. 32 (1983) 2777-2784]. Control values are represented by the specific binding of (3H)naloxone to membranes preincubated with a buffer and treated in the same way. Heterologous displacement experiments were used to evaluate the affinity of the investigated compounds for (^3 H)naloxone binding sites.
# [6] = system: mice; experiment: analgetic effect, writhing test (mice); assay type: in vivo
# [7] = system: rat; experiment: analgetic effect, hot plate (rat); assay type: in vivo
# [8] = system: rat; experiment: analgetic effect, tail flick (rat); assay type: in vivo
# [9] = system: rat; experiment: animal or person; conditions: read-out: algolyt. test (rat) 100% activity
# [10] = system: rat; conditions: dose giving 100% activity
# [11] = system: rats
# [12] = system: mice; conditions: in vivo
# [13] = system: mice; experiment: physical dependency, jumping test on mice; conditions: treatment 7 x 100 mg/kg ip.; naloxone 50 mg/kg ip.
# [14] = type A: OP 0.1 mg/kg s.c., 10 min
# [15] = type A: OP 0.5 mg/kg s.c., 10 min
# [16] = type A: OP 0.5 mg/kg s.c., then morphine 5 mg/kg s.c., 10 min
# [17] = type A: OP 0.5 mg/kg s.c., then morphine 5 mg/kg s.c., 60 min
# [18] = type B: morphine 5 mg/kg s.c., then OP 1.0 mg/kg s.c., 20 min
# [19] = type B: morphine 5 mg/kg s.c., then OP 1.0 mg/kg s.c., 30 min
# [20] = type C: OP 0.25 mg/kg with morphine 5 mg/kg s.c., 20 min
# [21] = type C: OP 0.25 mg/kg with morphine 5 mg/kg s.c., 30 min
# [22] = type C: OP 0.25 mg/kg with morphine 10 mg/kg s.c., 10 min
# [23] = type C: OP 0.25 mg/kg with morphine 20 mg/kg s.c., 30 min
# [24] = Mus musculus, read-out: writhing test (mice) ED50
# [25] = Rattus norvegicus, read-out: hot plate (rat) ED50
# [26] = Rattus norvegicus, read-out: tail flick (rat) ED50
# [27] = OS 0.025 mg/kg s.c. (20 min), morphine 5 mg/kg s.c., 20 min
# [28] = OS 0.025 mg/kg s.c. (30 min), morphine 5 mg/kg s.c., 30 min
# [29] = OS 0.025 mg/kg s.c., 10 min (before morphine)
# [30] = OS 0.50 mg/kg s.c. (30 min), morphine 20 mg/kg s.c., 20 min
# [31] = s.c. on rats, Inactine 35 mg/kg, dose as base
# [32] = type A: OH 0.25 mg/kg s.c., 20 min
# [33] = type A: OH 0.25 mg/kg s.c., 30 min
# [34] = type A: OH 0.25 mg/kg s.c., then morphine 5 mg/kg s.c., 10 min
# [35] = type C: OH 0.25 mg/kg with morphine 5 mg/kg s.c., 20 min
compound,measurement,setting,value
"COc1ccc2c3c1O[C@H]1C(=NNc4ccccc4)CC[C@@]4(O)[C@@H](C2)N(C)CC[C@]314 [Oxycodone-phenylhydrazone, 14-OH-DIHYDROCODEINONE-PHENYLHYDRAZONE (CIS)]",Ki,[1],1150 nM
same,influence on the respiratory depression effect of morphine (in words),"[2]; rabbit, in vivo",partially antagonizes the effect of morphine
same,respiration effect,"[2]; rabbit, in vivo, sc",no change; also recorded: slight stym
same,resp. change ampl.,[3]; [14],+20
same,resp. change fr/min,[3]; [14],+33
same,resp. change ampl.,[3]; [15],0
same,resp. change fr/min,[3]; [15],+16
same,resp. change ampl.,[3]; [16],-20
same,resp. change fr/min,[3]; [16],-17
same,resp. change ampl.,[3]; [17],0
same,resp. change fr/min,[3]; [17],0
same,resp. change ampl.,[3]; [18],+15
same,resp. change fr/min,[3]; [18],-16
same,resp. change ampl.,[3]; [19],+20
same,resp. change fr/min,[3]; [19],-6
same,resp. change ampl.,[3]; [20],+20
same,resp. change fr/min,[3]; [20],+44
same,resp. change ampl.,[3]; [21],+30
same,resp. change fr/min,[3]; [21],+92
same,resp. change ampl.,[3]; [22],+20
same,resp. change fr/min,[3]; [22],+23
same,resp. change ampl.,[3]; [23],0
same,resp. change fr/min,[3]; [23],-8
same,ED500 % (dose increasing narcosis to five times the control),"[4]; rat, in vivo","1,5 mg/kg"
same,Ki,[5],1150 nM
same,ED50,[6]; [24],1.2 mg/kg
same,ED50,[7]; [25],0.8 mg/kg
same,ED50,[8]; [26],1.2 mg/kg
same,ED100,[9],10 mg/kg
"COc1ccc2c3c1O[C@H]1C(=NNC(N)=O)CC[C@@]4(O)[C@@H](C2)N(C)CC[C@]314 [Oxycodone-semicarbazone, 14-OH-DIHYDROCODEINONE-SEMICARBAZONE (TRANS)]",Ki,[1],588 nM
same,respiration effect (printed over two lines: morphine-inhibition),"[2]; rabbit, in vivo",inhibition
same,respiration frequency/min.,"[2]; rabbit, in vivo",.uparw.
same,respiration volume,"[2]; rabbit, in vivo",.uparw..dwnarw.
same,resp. change ampl.,"[3]; OS 0.01 mg/kg s.c., 10 min",0
same,resp. change fr/min,"[3]; OS 0.01 mg/kg s.c., 10 min",+48
same,resp. change ampl.,"[3]; OS 0.01 mg/kg s.c., 30 min",+20
same,resp. change fr/min,"[3]; OS 0.01 mg/kg s.c., 30 min",+51
same,resp. change ampl.,[3]; [27],-16
same,resp. change fr/min,[3]; [27],+24
same,resp. change ampl.,[3]; [28],-20
same,resp. change fr/min,[3]; [28],+13
same,resp. change ampl.,[3]; [29],+20
same,resp. change fr/min,[3]; [29],+48
same,resp. change ampl.,"[3]; OS 0.025 mg/kg s.c., 30 min",+20
same,resp. change fr/min,"[3]; OS 0.025 mg/kg s.c., 30 min",+51
same,resp. change ampl.,"[3]; OS 0.05 mg/kg s.c., 10 min",+75
same,resp. change fr/min,"[3]; OS 0.05 mg/kg s.c., 10 min",+50
same,resp. change ampl.,[3]; [30],0
same,resp. change fr/min,[3]; [30],+10
same,resp. change ampl.,"[3]; OS 0.50 mg/kg s.c., 10 min",0
same,resp. change fr/min,"[3]; OS 0.50 mg/kg s.c., 10 min",+36
same,respiration number (in words),[3]; small doses,considerably increase the respiration number
same,ED500 % (dose increasing narcosis to five times the control),"[4]; rat, in vivo","1,5 mg/kg"
same,Ki,[5],588 nM
same,ED50,[6]; [24],0.15 mg/kg
same,ED50,[7]; [25],0.58 mg/kg
same,ED50,[8]; [26],0.35 mg/kg
same,ED100,[9],5 mg/kg
"COc1ccc2c3c1O[C@H]1C(=O)CC[C@@]4(O)[C@@H](C2)N(C)CC[C@]314 [Oxycodone, reference compound]",respiration effect,"[2]; 10-2500 μg/kg i.v., s.c.",depression
same,respiration frequency/min.,"[2]; 10-2500 μg/kg i.v., s.c.",.dwnarw.
same,respiration volume,"[2]; 10-2500 μg/kg i.v., s.c.",.dwnarw.
same,influence on the respiratory depression effect of morphine (in words),"[2]; rabbit, in vivo",unambiguously potentiate the respiratory depression effect of morphine
same,respiratory depression by the compound alone (in words),"[2]; s.c., dihydrocodeinone 50-2500 μg/kg, oxycodone 10-2500 μ/kg",cause respiratory depression
same,ED500 % (dose increasing narcosis to five times the control),[4]; [31],"1,2 mg/kg"
same,algolyt. test (rat) 100% activity,[10],"2,2 mg/kg"
same,writhing test (mice) ED50,[6]; mice,"0,45 mg/kg"
same,change of morphine toxicity (in words),"[11]; administered together with morphine, s.c.",potentiate toxicity of morphine
same,Combination LD50 / morphine LD50,[11]; test substance 10 mg/kg s.c.,"0,57"
same,hot plate (rat) ED50,[7]; rat,0.92 mg/kg
same,tail flick (rat) ED50,[8]; rat,"0,68 mg/kg"
"COc1ccc2c3c1O[C@H]1C(=NN)CC[C@@]4(O)[C@@H](C2)N(C)CC[C@]314 [Oxycodone hydrazone, 14-OH-DIHYDROCODEINONE-HYDRAZONE (TRANS)]",Ki,[1],800 nM
same,volume and frequency of respiration (in words),[2]; 50 μg/kg dose,increases both the volume and the frequency of respiration
same,respiration effect (printed over two lines: slight reversion),"[2]; rabbit, in vivo",reversion
same,reversal of morphine respiratory depression (in words),"[2]; rabbit, in vivo",a partial reversal takes place
same,respiration frequency/min.,"[2]; rabbit, in vivo, sc",.uparw.
same,respiration volume,"[2]; rabbit, in vivo, sc",.uparw.
same,resp. change ampl.,[3]; [32],+20
same,resp. change fr/min,[3]; [32],+150
same,resp. change ampl.,[3]; [33],+20
same,resp. change fr/min,[3]; [33],+127
same,resp. change ampl.,[3]; [34],-30
same,resp. change fr/min,[3]; [34],-36
same,resp. change ampl.,[3]; [35],+10
same,resp. change fr/min,[3]; [35],+30
same,ED500 % (dose increasing narcosis to five times the control),"[4]; rat, in vivo","0,45 mg/kg"
same,potentiation of Inactine narcosis (in words),"[4]; rat, in vivo",most effectively prolongated
same,ED50,[6]; Mus musculus; read-out: writhing test (mice) ED50,0.35 mg/kg
same,number of jumps/mouse (average),[12],"1,5"
same,% relation of jumping animals,[12]; mouse,50%
same,ED50,[7]; Rattus norvegicus; read-out: hot plate (rat) ED50,0.46 mg/kg
same,ED50,[8]; Rattus norvegicus; read-out: tail flick (rat) ED50,0.65 mg/kg
same,ED100,[9],10 mg/kg
"CN1CC[C@]23c4c5ccc(O)c4O[C@H]2[C@@H](O)C=C[C@H]3[C@H]1C5 [Morphine, reference compound]",ED500 % (dose increasing narcosis to five times the control),[4]; [31],"1,75 mg/kg"
same,algolyt. test (rat) 100% activity,[10],"15,0 mg/kg"
same,writhing test (mice) ED50,[6]; mice,"0,45 mg/kg"
same,hot plate (rat) ED50,[7]; rat,"3,6 mg/kg"
same,tail flick (rat) ED50,[8]; rat,"1,8 mg/kg"
same,% relation of jumping animals,[13],100%
same,number of jumps/mouse (average),[13],"34,5"
